Results on 7 molecules are retold here after patent US20250296938A1, “Compounds that Interact with the Ras Superfamily for the Treatment of Cancers, Inflammatory Diseases, Rasopathies, and Fibrotic Disease” (SHY Therapeutics, LLC, priority 2018, published 2025).

The first assay deals with KRas G12C mutant. As to the kind of experiment: Ras GTP binding domain inhibition assay (Cy3-GTP/Cy5-GTP competition). On the set-up: species or system human. Conditions: 20 μM; with SOS. As to the method: (§1) The following method was developed as specific assay for the following proteins: KRas wild type, KRas Q61H mutant, KRas G12C mutant, KRas G12D mutant, HRas wild type, Rac-1, and Rho-A.
(§2) • 25 mM Tris-HCl, pH 7.4 • 27 mM KCl • 137 mM NaCl • 1 mM MgCl2 • 1 mM DTT
(§3) • 50 mM Tris-HCl, pH 7.0 • 1 mM MgCl2 • 1 mM DTT
(§4) The small GTPases proteins: KRas wild type. KRas Q61H mutant, KRas G12C mutant, KRas G12D mutants, HRas wild type, Rac-1, and Rho-A were expressed as His-tagged proteins. In addition, the Guanosine nucleotide Exchange Factor (GEF) Sos protein (residues 556-1049) was expressed as a His-tagged protein. In cells, the guanine nucleotide exchange factor Sos protein promotes activation of Ras proteins by stimulating an exchange of GDP for GTP. The inclusion of Sos to the Ras GTP binding domain inhibition assay may be considered as an alternative representation of physiological cellular conditions for evaluating the inhibitory activity of some of the tested small molecules.
(§5) For the assay, all purified small GTPases proteins were diluted in Buffer-I or Buffer-II to a final concentration of 10-30 μg/mL. 200 μL of each diluted protein was added to a nickel-coated 96-well plate and incubated overnight at 4° C. Then the protein solution was discarded and 200 μL of Buffer-I or Buffer-II was added to each well in the presence of 1% DMSO. Compounds to be tested were added to the protein-coated wells at final concentration of 20 μM, and incubated for 3 hours at room temperature with and without […] of Sos added to the final hour of the incubation. When performing IC50 measurements a serial dilution of all tested concentrations was added. Then Cy3-GTP or Cy5-GTP was added to each well to a final concentration of 100 nM. The labeled GTP was incubated for 45 minutes at room temperature. Following GTP incubation, wells were washed 3× in Buffer-I or Buffer-II and 200 μL of Buffer-I or Buffer-II was added to each well. Following washes, the amount of bound labeled-GTP was measured using a SpectraMax M3 (Molecular Devices).
Take `COCCn1cc(Nc2nc(-c3ccccn3)nc(OC)c2OC)cn1` [drawing 793]: the “KRas G12C mutant + SOS: % inh.” value was “A (1-25% inhibition)”.

Consider `COc1nc(-c2ccccn2)nc(Nc2cnn(C)c2)c1OC` [drawing 794], for which the “KRas G12C mutant + SOS: % inh.” value is recorded as “A (1-25% inhibition)”.

Consider `COCCNc1nc(-c2cn(C)cn2)nc2sc(-c3cc(OC)ccc3Cl)c(-c3ccc(OC)cc3)c12` [drawing 795], for which the “KRas G12C mutant + SOS: % inh.” value is given as “D (76-100% inhibition)”.

As to `COC1CCN(c2nc(-c3nccn3C)nn3cc(-c4ccccc4)c(-c4ccccc4)c23)C1` (centres unmarked) [drawing 796], the “KRas G12C mutant + SOS: % inh.” value is given as “B (26-50% inhibition)”.

`COCCNc1nc(-c2cn(C)cn2)nc2sc(-c3cccc(OC)c3Cl)c(-c3ccc(OC)cc3)c12` [drawing 797]: the “KRas G12C mutant + SOS: % inh.” value is reported as “D (76-100% inhibition)”.

As to `CC(C)CN(C)C(=O)c1nc(-c2ccccn2)nc(O)c1O` [drawing 798], the “KRas G12C mutant + SOS: % inh.” value is “B (26-50% inhibition)”.

For the molecule `CN(Cc1ccccc1)C(=O)c1nc(-c2ccccn2)nc(O)c1O` [drawing 799], the “KRas G12C mutant + SOS: % inh.” value is recorded as “B (26-50% inhibition)”.

The assay is the same for the next values; noted with them: 20 μM; without SOS.
As for `COCCn1cc(Nc2nc(-c3ccccn3)nc(OC)c2OC)cn1` [drawing 793], the “KRas G12C mutant: % inh.” value is “A (1-25% inhibition)”.

For the molecule `COc1nc(-c2ccccn2)nc(Nc2cnn(C)c2)c1OC` [drawing 794], the “KRas G12C mutant: % inh.” value is 0 (0% inhibition).

For the molecule `COCCNc1nc(-c2cn(C)cn2)nc2sc(-c3cc(OC)ccc3Cl)c(-c3ccc(OC)cc3)c12` [drawing 795], the “KRas G12C mutant: % inh.” value is given as “B (26-50% inhibition)”.

With `COC1CCN(c2nc(-c3nccn3C)nn3cc(-c4ccccc4)c(-c4ccccc4)c23)C1` (centres unmarked) [drawing 796], the “KRas G12C mutant: % inh.” value was “A (1-25% inhibition)”.

For the molecule `COCCNc1nc(-c2cn(C)cn2)nc2sc(-c3cccc(OC)c3Cl)c(-c3ccc(OC)cc3)c12` [drawing 797], the “KRas G12C mutant: % inh.” value is “B (26-50% inhibition)”.

As to `CC(C)CN(C)C(=O)c1nc(-c2ccccn2)nc(O)c1O` [drawing 798], the “KRas G12C mutant: % inh.” value is listed as “C (51-75% inhibition)”.

For `CN(Cc1ccccc1)C(=O)c1nc(-c2ccccn2)nc(O)c1O` [drawing 799], the “KRas G12C mutant: % inh.” value is “C (51-75% inhibition)”.

Another assay deals with KRas Q61H mutant. The description is as above. Also on record: species or system human. To be noted: 20 μM; with SOS. The protocol: as §1, §2, §3, §4, §5
For the molecule `COCCn1cc(Nc2nc(-c3ccccn3)nc(OC)c2OC)cn1` [drawing 793], the “KRas Q61H mutant + SOS: % inh.” value is given as “A (1-25% inhibition)”.

With `COc1nc(-c2ccccn2)nc(Nc2cnn(C)c2)c1OC` [drawing 794], the “KRas Q61H mutant + SOS: % inh.” value is “A (1-25% inhibition)”.

With `COCCNc1nc(-c2cn(C)cn2)nc2sc(-c3cc(OC)ccc3Cl)c(-c3ccc(OC)cc3)c12` [drawing 795], the “KRas Q61H mutant + SOS: % inh.” value is recorded as “D (76-100% inhibition)”.

On to `COC1CCN(c2nc(-c3nccn3C)nn3cc(-c4ccccc4)c(-c4ccccc4)c23)C1` (centres unmarked) [drawing 796], for which the “KRas Q61H mutant + SOS: % inh.” value is reported as “B (26-50% inhibition)”.

Consider `COCCNc1nc(-c2cn(C)cn2)nc2sc(-c3cccc(OC)c3Cl)c(-c3ccc(OC)cc3)c12` [drawing 797], for which the “KRas Q61H mutant + SOS: % inh.” value is reported as “D (76-100% inhibition)”.

Turning to `CC(C)CN(C)C(=O)c1nc(-c2ccccn2)nc(O)c1O` [drawing 798], the “KRas Q61H mutant + SOS: % inh.” value was “B (26-50% inhibition)”.

As to `CN(Cc1ccccc1)C(=O)c1nc(-c2ccccn2)nc(O)c1O` [drawing 799], the “KRas Q61H mutant + SOS: % inh.” value is “B (26-50% inhibition)”.

The assay is the same for the next values; noted with them: 20 μM; without SOS.
Turning to `COCCn1cc(Nc2nc(-c3ccccn3)nc(OC)c2OC)cn1` [drawing 793], the “KRas Q61H mutant: % inh.” value was 0 (0% inhibition).

As to `COc1nc(-c2ccccn2)nc(Nc2cnn(C)c2)c1OC` [drawing 794], the “KRas Q61H mutant: % inh.” value is 0 (0% inhibition).

With `COCCNc1nc(-c2cn(C)cn2)nc2sc(-c3cc(OC)ccc3Cl)c(-c3ccc(OC)cc3)c12` [drawing 795], the “KRas Q61H mutant: % inh.” value was “B (26-50% inhibition)”.

Regarding `COC1CCN(c2nc(-c3nccn3C)nn3cc(-c4ccccc4)c(-c4ccccc4)c23)C1` (centres unmarked) [drawing 796], the “KRas Q61H mutant: % inh.” value is “B (26-50% inhibition)”.

For `COCCNc1nc(-c2cn(C)cn2)nc2sc(-c3cccc(OC)c3Cl)c(-c3ccc(OC)cc3)c12` [drawing 797], the “KRas Q61H mutant: % inh.” value is “C (51-75% inhibition)”.

With `CC(C)CN(C)C(=O)c1nc(-c2ccccn2)nc(O)c1O` [drawing 798], the “KRas Q61H mutant: % inh.” value was “B (26-50% inhibition)”.

As for `CN(Cc1ccccc1)C(=O)c1nc(-c2ccccn2)nc(O)c1O` [drawing 799], the “KRas Q61H mutant: % inh.” value is “C (51-75% inhibition)”.

The next assay has as its system KRas wild type. Described as above. On the set-up: species or system human. To be noted: 20 μM; with SOS. As to the method: as §1, §2, §3, §4, §5
`COCCn1cc(Nc2nc(-c3ccccn3)nc(OC)c2OC)cn1` [drawing 793]: the “KRas wild type + SOS: % inh.” value is “A (1-25% inhibition)”.

In the case of `COc1nc(-c2ccccn2)nc(Nc2cnn(C)c2)c1OC` [drawing 794], the “KRas wild type + SOS: % inh.” value is listed as 0 (0% inhibition).

In the case of `COCCNc1nc(-c2cn(C)cn2)nc2sc(-c3cc(OC)ccc3Cl)c(-c3ccc(OC)cc3)c12` [drawing 795], the “KRas wild type + SOS: % inh.” value is recorded as “D (76-100% inhibition)”.

For `COC1CCN(c2nc(-c3nccn3C)nn3cc(-c4ccccc4)c(-c4ccccc4)c23)C1` (centres unmarked) [drawing 796], the “KRas wild type + SOS: % inh.” value is recorded as “A (1-25% inhibition)”.

With `COCCNc1nc(-c2cn(C)cn2)nc2sc(-c3cccc(OC)c3Cl)c(-c3ccc(OC)cc3)c12` [drawing 797], the “KRas wild type + SOS: % inh.” value is given as “D (76-100% inhibition)”.

As to `CC(C)CN(C)C(=O)c1nc(-c2ccccn2)nc(O)c1O` [drawing 798], the “KRas wild type + SOS: % inh.” value was “A (1-25% inhibition)”.

For the molecule `CN(Cc1ccccc1)C(=O)c1nc(-c2ccccn2)nc(O)c1O` [drawing 799], the “KRas wild type + SOS: % inh.” value is given as “B (26-50% inhibition)”.

Staying with this assay, now noted: 20 μM; without SOS.
Regarding `COCCn1cc(Nc2nc(-c3ccccn3)nc(OC)c2OC)cn1` [drawing 793], the “KRas wild type: % inh.” value is reported as 0 (0% inhibition).

With `COc1nc(-c2ccccn2)nc(Nc2cnn(C)c2)c1OC` [drawing 794], the “KRas wild type: % inh.” value is recorded as “A (1-25% inhibition)”.

In the case of `COCCNc1nc(-c2cn(C)cn2)nc2sc(-c3cc(OC)ccc3Cl)c(-c3ccc(OC)cc3)c12` [drawing 795], the “KRas wild type: % inh.” value is “B (26-50% inhibition)”.

Regarding `COC1CCN(c2nc(-c3nccn3C)nn3cc(-c4ccccc4)c(-c4ccccc4)c23)C1` (centres unmarked) [drawing 796], the “KRas wild type: % inh.” value is “B (26-50% inhibition)”.

Consider `COCCNc1nc(-c2cn(C)cn2)nc2sc(-c3cccc(OC)c3Cl)c(-c3ccc(OC)cc3)c12` [drawing 797], for which the “KRas wild type: % inh.” value is on record as “C (51-75% inhibition)”.

Regarding `CC(C)CN(C)C(=O)c1nc(-c2ccccn2)nc(O)c1O` [drawing 798], the “KRas wild type: % inh.” value is given as “B (26-50% inhibition)”.

As for `CN(Cc1ccccc1)C(=O)c1nc(-c2ccccn2)nc(O)c1O` [drawing 799], the “KRas wild type: % inh.” value is given as “C (51-75% inhibition)”.

A further assay addresses T1, KRas G12D mutant (Homo sapiens, UniProt P01116, G12D).
T1 construct: fused on or other part: His tag, used for capture on nickel-coated plates
The description is as above. To be noted: 20 μM; with SOS; read-out: KRas G-12D mutant + SOS: % inh. As to the method: as §1, §2, §3, §4, §5
For the molecule `COCCn1cc(Nc2nc(-c3ccccn3)nc(OC)c2OC)cn1` [drawing 793], the inhibition at 20 µM lay within 1 to 25%.

For the molecule `COc1nc(-c2ccccn2)nc(Nc2cnn(C)c2)c1OC` [drawing 794], the inhibition at 20 µM is 0%.

For `COCCNc1nc(-c2cn(C)cn2)nc2sc(-c3cc(OC)ccc3Cl)c(-c3ccc(OC)cc3)c12` [drawing 795], the inhibition at 20 µM lay in the range of 26 to 50%.

On to `COC1CCN(c2nc(-c3nccn3C)nn3cc(-c4ccccc4)c(-c4ccccc4)c23)C1` (centres unmarked) [drawing 796], for which the inhibition at 20 µM lay within 1 to 25%.

Take `COCCNc1nc(-c2cn(C)cn2)nc2sc(-c3cccc(OC)c3Cl)c(-c3ccc(OC)cc3)c12` [drawing 797]: the inhibition at 20 µM lay in the range of 26 to 50%.

In the case of `CC(C)CN(C)C(=O)c1nc(-c2ccccn2)nc(O)c1O` [drawing 798], the inhibition at 20 µM lay in the range of 26 to 50%.

Consider `CN(Cc1ccccc1)C(=O)c1nc(-c2ccccn2)nc(O)c1O` [drawing 799], for which the inhibition at 20 µM lay in the range of 26 to 50%.

Staying with this assay, now noted: 20 μM; without SOS; read-out: KRas G12D mutant: % inh.
Consider `COCCn1cc(Nc2nc(-c3ccccn3)nc(OC)c2OC)cn1` [drawing 793], for which the inhibition at 20 µM was 1 to 25%.

In the case of `COc1nc(-c2ccccn2)nc(Nc2cnn(C)c2)c1OC` [drawing 794], the inhibition at 20 µM stood at 0%.

In the case of `COCCNc1nc(-c2cn(C)cn2)nc2sc(-c3cc(OC)ccc3Cl)c(-c3ccc(OC)cc3)c12` [drawing 795], the inhibition at 20 µM was in the range of 26 to 50%.

As for `COC1CCN(c2nc(-c3nccn3C)nn3cc(-c4ccccc4)c(-c4ccccc4)c23)C1` (centres unmarked) [drawing 796], the inhibition at 20 µM was in the range of 26 to 50%.

With `COCCNc1nc(-c2cn(C)cn2)nc2sc(-c3cccc(OC)c3Cl)c(-c3ccc(OC)cc3)c12` [drawing 797], the inhibition at 20 µM lay within 26 to 50%.

As to `CC(C)CN(C)C(=O)c1nc(-c2ccccn2)nc(O)c1O` [drawing 798], the inhibition at 20 µM lay within 26 to 50%.

In the case of `CN(Cc1ccccc1)C(=O)c1nc(-c2ccccn2)nc(O)c1O` [drawing 799], the inhibition at 20 µM was 26 to 50%.
